Experiment [1] has as its target T1, Beta-secretase 1 (Homo sapiens, UniProt P56817). Description: Inhibition of BACE1 at 50 uM by FRET assay.
For experiment [2], the target named is T1, Beta-secretase 1. The experiment can be described thus: Inhibition of BACE1 at 100 uM by FRET assay.
In experiment [3] the target is T1, Beta-secretase 1. Description: Inhibition of BACE1 at 25 uM by FRET assay.

Experimental findings from ChEMBL document CHEMBL2057073, “Synthesis and structure-activity relationship studies of 1,3-disubstituted 2-propanols as BACE-1 inhibitors” (Bioorg Med Chem Lett, 2012) are described below.

T1 sequence (P56817 whole entry): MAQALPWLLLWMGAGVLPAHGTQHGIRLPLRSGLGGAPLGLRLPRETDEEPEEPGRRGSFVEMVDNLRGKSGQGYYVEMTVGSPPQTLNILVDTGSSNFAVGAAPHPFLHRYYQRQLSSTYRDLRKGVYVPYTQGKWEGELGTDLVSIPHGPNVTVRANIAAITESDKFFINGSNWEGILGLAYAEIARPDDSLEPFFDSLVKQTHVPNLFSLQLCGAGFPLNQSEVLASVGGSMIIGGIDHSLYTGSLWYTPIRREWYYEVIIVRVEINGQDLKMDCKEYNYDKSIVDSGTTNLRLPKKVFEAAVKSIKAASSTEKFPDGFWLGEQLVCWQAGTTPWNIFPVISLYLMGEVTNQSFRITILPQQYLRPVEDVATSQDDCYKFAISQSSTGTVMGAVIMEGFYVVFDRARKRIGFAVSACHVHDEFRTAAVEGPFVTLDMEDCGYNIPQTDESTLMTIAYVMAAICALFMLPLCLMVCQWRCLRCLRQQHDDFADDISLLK

For `Cc1ccc(SCC(O)Cn2c(-c3ccccc3)cc3ccccc32)cc1` (stereo not given), the values for the inhibition on Beta-secretase 1 [1], on Beta-secretase 1 [2] and against Beta-secretase 1 [3] were 65%, 76% and 45%, respectively. `COc1ccc(SCC(O)Cn2c(C)c(C)c3ccccc32)cc1` (stereo not given): the inhibition was determined as 70% against Beta-secretase 1 [1], 96% against Beta-secretase 1 [2] and 26% against Beta-secretase 1 [3]. Turning to `Cc1c(C)n(CC(O)CSc2nnnn2-c2ccccc2)c2ccccc12` (stereo not given), the inhibition stood at 64% against Beta-secretase 1 [1], 93% against Beta-secretase 1 [2] and 31% on Beta-secretase 1 [3]. For the compound `OC(CSc1ccc(F)cc1)Cn1c2c(c3ccccc31)CCCC2` (stereo not given), the inhibition stood at 92% at Beta-secretase 1 [1], 87% at Beta-secretase 1 [2] and 56% against Beta-secretase 1 [3]. Take `COc1ccc(SCC(O)Cn2c3c(c4ccccc42)CCC3)cc1` (stereo not given): the inhibition against Beta-secretase 1 [1] came out at 74%; against Beta-secretase 1 [2], 85%; against Beta-secretase 1 [3] it was 27%.

With `OC(CSc1ccc(Cl)cc1)Cn1c(-c2ccccc2)cc2ccccc21` (stereo not given), the inhibition against Beta-secretase 1 [1] worked out at 69%; on Beta-secretase 1 [2], 82%; on Beta-secretase 1 [3] it was 56%. Turning to `CCc1cccc2ccn(CC(O)CSc3cc(C)cc(C)c3)c12` (stereo not given), the results for the inhibition against Beta-secretase 1 [1], on Beta-secretase 1 [2] and on Beta-secretase 1 [3] were 71%, 90% and 40%, respectively.

Take `Cc1ccccc1SCC(O)Cn1c(-c2ccccc2)cc2ccccc21` (stereo not given): the inhibition against Beta-secretase 1 [2] is 67%. Turning to `OC(CSc1nnnn1-c1ccccc1)Cn1c(-c2ccccc2)cc2ccccc21` (stereo not given), the inhibition on Beta-secretase 1 [2] was determined as 53%. On to `Nc1cccc(SCC(O)Cn2c(-c3ccccc3)cc3ccccc32)c1` (stereo not given), for which the inhibition at Beta-secretase 1 [2] was determined as 73%. With `COc1ccc(SCC(O)COc2ccc(-c3ccccc3)cc2)c(OC)c1` (stereo not given), the inhibition on Beta-secretase 1 [2] turned out to be 74%. Consider `COc1ccc(SCC(O)Cn2ccc3ccccc32)c(OC)c1` (stereo not given), for which the results for the inhibition at Beta-secretase 1 [1], against Beta-secretase 1 [2] and against Beta-secretase 1 [3] were 76%, 84% and 43%, respectively. As to `Cc1cc(C)cc(SCC(O)COc2ccc(Cc3ccccc3)cc2)c1` (stereo not given), on Beta-secretase 1 [2], the inhibition was found to be 71%.

On to `OC(CSc1ccccc1Cl)CN(Cc1ccccc1)Cc1ccccc1` (stereo not given), for which the inhibition on Beta-secretase 1 [2] was 45%.

Consider `COc1ccc(SCC(O)Cn2c(-c3ccccc3)cc3ccccc32)cc1` (stereo not given), for which, at Beta-secretase 1 [2], the inhibition stood at 70%. Turning to `COc1cc2c(cc1OC)C(c1ccccc1)N(CC(O)CSc1ccccc1C)CC2` (stereo not given), at Beta-secretase 1 [2], the inhibition amounted to 24%. Consider `COc1ccc(SCC(O)CN(Cc2ccccc2)Cc2ccccc2)cc1` (stereo not given), for which the inhibition against Beta-secretase 1 [2] is 10%.

Regarding `OC(CSCCCc1ccccc1)CN(Cc1ccccc1)Cc1ccccc1` (stereo not given), at Beta-secretase 1 [2], the inhibition is 16%. Take `OC(CSc1nnnn1-c1ccccc1)Cn1c2c(c3ccccc31)CCC2` (stereo not given): the inhibition against Beta-secretase 1 [1] turned out to be 76%; on Beta-secretase 1 [2], 87%; against Beta-secretase 1 [3], 37%. In the case of `CCc1ccccc1SCC(O)CN1CCc2cc(OC)c(OC)cc2C1c1ccccc1` (stereo not given), the inhibition on Beta-secretase 1 [2] was 1%. Regarding `OC(CSc1ccc(Cl)cc1)CN(Cc1ccccc1)Cc1ccccc1` (stereo not given), the inhibition against Beta-secretase 1 [2] was 24%. On the same count and under the same terms, as for `Cc1ccccc1SCC(O)CN1CCC(C(O)(c2ccccc2)c2ccccc2)CC1` (stereo not given), the figure is 5%.

Turning to `OC(CSc1ccccc1Cl)CN1CCC(C(O)(c2ccccc2)c2ccccc2)CC1` (stereo not given), the inhibition against Beta-secretase 1 [2] was 5%.

Regarding `Oc1ccccc1SCC(O)COc1ccc(Cc2ccccc2)cc1` (stereo not given), the inhibition against Beta-secretase 1 [1] worked out at 101%; against Beta-secretase 1 [2], 84%; on Beta-secretase 1 [3], 90%. Turning to `Cc1ccc(SCC(O)CN(Cc2ccccc2)Cc2ccccc2)cc1` (stereo not given), at Beta-secretase 1 [2], the inhibition amounted to 7%.

As to `CCc1ccc(SCC(O)Cn2c(-c3ccccc3)cc3ccccc32)cc1` (stereo not given), the inhibition was 78% at Beta-secretase 1 [1], 79% at Beta-secretase 1 [2] and 42% at Beta-secretase 1 [3]. As to `COc1ccc(SCC(O)Cn2c(C)c(C)c3ccccc32)c(OC)c1` (stereo not given), the results for the inhibition against Beta-secretase 1 [1], against Beta-secretase 1 [2] and at Beta-secretase 1 [3] were 37%, 83% and 0%, respectively.

With `Oc1ccccc1SCC(O)CN1CCC(C(O)(c2ccccc2)c2ccccc2)CC1` (stereo not given), on Beta-secretase 1 [2], the inhibition stood at 3%. Take `OC(CSc1ccccc1)CN(Cc1ccccc1)Cc1ccccc1` (stereo not given): the inhibition on Beta-secretase 1 [2] amounted to 0%. Regarding `CCc1cccc2ccn(CC(O)CSc3nnnn3-c3ccccc3)c12` (stereo not given), the inhibition against Beta-secretase 1 [1] was 46%; against Beta-secretase 1 [2] it was 86%. Regarding `CCc1ccccc1SCC(O)CN1CCC(C(O)(c2ccccc2)c2ccccc2)CC1` (stereo not given), the inhibition against Beta-secretase 1 [2] is 3%. For `COc1ccc(SCC(O)Cn2c3ccccc3c3ccccc32)cc1` (stereo not given), the inhibition at Beta-secretase 1 [1] amounted to 72%; at Beta-secretase 1 [2], 88%; on Beta-secretase 1 [3], 37%.

Consider `OC(CSc1nnnn1-c1ccccc1)Cn1c2ccccc2c2ccccc21` (stereo not given), for which the inhibition on Beta-secretase 1 [2] stood at 64%. In the case of `COc1ccc(SCC(O)Cn2c(-c3ccccc3)cc3ccccc32)c(OC)c1` (stereo not given), the inhibition against Beta-secretase 1 [1] is 42%; at Beta-secretase 1 [2], 77%; against Beta-secretase 1 [3], 21%. As for `OC(CSc1ccccc1)CN1CCC(C(O)(c2ccccc2)c2ccccc2)CC1` (stereo not given), at Beta-secretase 1 [2], the inhibition was 2%. On to `Cc1cc(C)cc(SCC(O)CN(Cc2ccccc2)Cc2ccccc2)c1` (stereo not given), for which the inhibition on Beta-secretase 1 [2] came to 38%. For the compound `Cc1cc(C)cc(SCC(O)CN2CCCCCC2)c1` (stereo not given), the inhibition on Beta-secretase 1 [2] is 15%. For `Cc1c(C)n(CC(O)CSc2ccccc2F)c2ccccc12` (stereo not given), at Beta-secretase 1 [2], the inhibition came to 56%.

For the compound `OC(CSc1ccc2ccccc2c1)CN(Cc1ccccc1)Cc1ccccc1` (stereo not given), the inhibition at Beta-secretase 1 [2] came to 19%. As for `CCc1ccc(SCC(O)CN2CCC(C(O)(c3ccccc3)c3ccccc3)CC2)cc1` (stereo not given), the inhibition on Beta-secretase 1 [2] worked out at 1%. Take `Cc1c(C)n(CC(O)CSc2ccc(O)cc2)c2ccccc12` (stereo not given): on Beta-secretase 1 [2], the inhibition is 75%. Take `CCc1ccc(SCC(O)Cn2ccc3cccc(CC)c32)cc1` (stereo not given): the inhibition at Beta-secretase 1 [1] was 61%; on Beta-secretase 1 [2], 92%; against Beta-secretase 1 [3], 38%. As to `OC(CSc1ccc2ccccc2c1)CN1CCCCCC1` (stereo not given), on Beta-secretase 1 [2], the inhibition stood at 0%.

Regarding `OC(COc1ccc(Cc2ccccc2)cc1)CSc1ccc(F)cc1` (stereo not given), the inhibition at Beta-secretase 1 [2] is 62%.

As to `CCc1ccc(SCC(O)CN2CCc3cc(OC)c(OC)cc3C2c2ccccc2)cc1` (stereo not given), the inhibition on Beta-secretase 1 [2] stood at 21%. As to `CCc1cccc2ccn(CC(O)CSCCCc3ccccc3)c12` (stereo not given), the inhibition on Beta-secretase 1 [2] stood at 0%.

`OC(CSc1ccc2ccccc2c1)CN1CCC(C(O)(c2ccccc2)c2ccccc2)CC1` (stereo not given): the inhibition on Beta-secretase 1 [2] was 0%. With `Oc1ccccc1SCC(O)CN(Cc1ccccc1)Cc1ccccc1` (stereo not given), the inhibition at Beta-secretase 1 [2] is 2%. In the case of `CCc1ccccc1SCC(O)COc1ccc(Cc2ccccc2)cc1` (stereo not given), the inhibition against Beta-secretase 1 [2] was 71%. Take `Oc1ccccc1SCC(O)COc1ccc(-c2ccccc2)cc1` (stereo not given): the inhibition against Beta-secretase 1 [2] was 33%. On to `Oc1ccccc1SCC(O)Cn1ccc2ccccc21` (stereo not given), for which the inhibition at Beta-secretase 1 [2] turned out to be 24%.

Turning to `COc1ccc(SCC(O)COc2ccc(-c3ccccc3)cc2)cc1` (stereo not given), the inhibition against Beta-secretase 1 [2] was 45%.

For `OC(COc1ccc(Cc2ccccc2)cc1)CSc1ccccc1F` (stereo not given), at Beta-secretase 1 [2], the inhibition came to 64%.

As to `COc1ccc(SCC(O)CN2CCC(C(O)(c3ccccc3)c3ccccc3)CC2)cc1` (stereo not given), at Beta-secretase 1 [2], the inhibition is 0%. For `COc1cc2c(cc1OC)C(c1ccccc1)N(CC(O)CSc1ccccc1F)CC2` (stereo not given), the inhibition against Beta-secretase 1 [2] stood at 23%.

As for `OC(CSc1nnnn1-c1ccccc1)CN(Cc1ccccc1)Cc1ccccc1` (stereo not given), the inhibition against Beta-secretase 1 [2] turned out to be 0%. For the compound `COc1cc2c(cc1OC)C(c1ccccc1)N(CC(O)CSc1ccc(F)cc1)CC2` (stereo not given), the inhibition against Beta-secretase 1 [2] amounted to 15%. Same read-out and setting: as for `Cc1c(C)n(CC(O)CSc2ccccc2)c2ccccc12` (stereo not given), the figure is 69%; as for `OC(CSc1ccc(Cl)cc1)CN1CCCCCC1` (stereo not given), 0%.

Broadly, the inhibition is the relative decrease from the control value, in per cent.
